Measured values reported in paper PMC11022729 (Advanced Science, 2024).
Where two headings read alike, the source gives them in different places.

Columns and labels:
[1] = biological target: T1, dopamine D1 receptor (Homo sapiens, UniProt P21728); test: SafetyScreen44 panel; assay type: binding
T1 construct: purchased Eurofins Cerep P270
Method: (§1) Measurements were performed in duplicate.
(§2) channel, which were obtainedfrom ratspecimens).
(§3) in brackets) specific for each target.

[2] = Metabolic stability assay in rat liver microsomes; assay type: in vitro ADME; conditions: for metabolic stability: 10 µM, 15, 30 and 60 min
Method: We next assessed the metabolic stability of these compounds (10 µM) in rat liver microsomes (Figure 2A). […] Therefore, we assumed that the occupation of metabolically labile sites at the aromatic core and the reduction in electron density at the oxidizable nitrogen atom of the piperazine ring might increase metabolic stability. Indeed, both the introduction of fluorine at R^2 and the introduction of an electron‐withdrawing carboxylic acid linker at R^3 improved metabolic stability. The substitution of chlorine with a trifluoromethyl group at R^1 was also beneficial. In contrast, homopiperazine and hydroxy linkers were metabolically labile.
The solubilized test compound (5 µL, final concentration 10 µM) was preincubated at 37 °C in 432 µL phosphate buffer (0.1 M, pH 7.4) together with 50 µL NADPH regenerating system (30 mM glucose‐6‐phosphate, 4 U mL^−1 glucose 6‐phosphate dehydrogenase, 10 mM NADP, and 30 mM MgCl2). After 5 min, the reaction started upon the addition of 13 µL of microsome mix from the liver of Sprague‐Dawley rats (Invitrogen; 20 mg protein per mL in 0.1 M phosphate buffer) in a shaking water bath at 37 °C. The reaction was stopped by adding 500 µL ice‐cold methanol at 0, 15, 30, and 60 min. The samples were centrifuged at 5000 × g for 5 min at 4 °C and the test compound was quantified from the supernatants by HPLC; the composition of the mobile phase was adapted to the test compound in a range of MeOH 40−90% and water (0.1% formic acid) 10−60%. Flow rate: 1 mL min^−1; stationary phase: Purospher STAR, RP18, 5 µm, 125 × 4; precolumn: Purospher STAR, RP18, 5 µm, 4 × 4; detection wavelength: 254 and 280 nm; injection volume: 50 µL. Control samples were used to evaluate the stability of the test compounds in the reaction mixture. The first control was without NADPH, which is needed for the enzymatic activity of the microsomes, the second control was with inactivated microsomes (incubated for 20 min at 90 °C), and the third control was without the test compound (to determine the baseline). The amounts of test compounds were quantified using an external calibration curve.

[3] = tested on: mice; test: Chloroquine-induced itch behavior, wildtype mice; assay type: in vivo, mouse
Method: We then assessed the antipruritic efficacy of compound 6 in a model of histamine‐independent itching induced by the antimalarial drug chloroquine.
Three to four days before the day of the experiment, the fur on the dorsolateral aspect of the neck was shaved under brief isoflurane anesthesia. On the testing day, the mice were habituated to a Plexiglas cylinder (30 cm in diameter) for 30 min. Compound 6 hydrochloride or vehicle were i.p. or p.o. administered, and 15 min later, the pruritogens chloroquine (200 µg), SLIGRL (100 µg), β‐alanine (100 µg), or histamine (800 µg), all dissolved in 0.9% saline (20 µL), were injected subcutaneously into the nape of the neck.^[ [29] ^] Number of scratching bouts directed toward the nape of the neck was assessed over 30 min by videotaping. In experiments with the Slack inhibitor, compound 31 (ref. [27]; 30 mg kg^−1 in 0.9% NaCl with 2% DMSO and 10% Kolliphor) was i.p. administered 5 min prior to compound 6.

[4] = tested on: mice; test: Accelerating rotarod test; assay type: in vivo, mouse; conditions: 15 min after dosing
Method: As a prerequisite for interpreting itch behavior experiments, we first tested motor function after systemic dosing.
Mice were placed on a rotarod treadmill (Ugo Basile, Italy) at increasing speed (4–40 rpm over 300 s) and trained for 4–5 consecutive days. Only mice that reached 300 s without falling off during the training sessions were included in the experiment. In the vertical pole test, the mice were placed head‐upward on top of a vertical pole with a rough surface (diameter, 1 cm; height, 40 cm), and the time until the animals reached the ground was recorded (cut‐off time 20 s). Only mice that reached the ground within 10 s in the baseline measurements were included in the experiment. […] The means of three trials at each time point were calculated for further analyses.

[5] = tested on: voltage-gated (KV) potassium channel; test: SafetyScreen44 panel; assay type: binding, rat; conditions: 10 µM
Method: as §1, §2, §3

[6] = Pharmacokinetics in mice (plasma and brain levels, LC-MS); assay type: in vivo; conditions: mouse
Method: To prepare for in vivo studies, we investigated the pharmacokinetic properties of compound 6. […] For comparison, we determined the plasma and brain loxapine levels. […] Collectively, the pharmacological and pharmacokinetic profiles of compound 6 make it an excellent molecule for in vivo pharmacodynamic studies.
Pharmacokinetic experiments were performed by Bienta (Enamine Biology Services, Kiev, Ukraine). Study design, animal selection, handling, and treatment were performed in accordance with the Enamine PK study protocols and the Institutional Animal Care and Use Guidelines. Male C57BL/6J mice (11–16 weeks old) were used in this study. The animals were fasted for 4 h before dosing. […] Each timepoint treatment group included three animals, and a control group was employed, including one animal.
Before collecting blood and brain tissue, the mice were anesthetized with 2,2,2‐tribromoethanol (150 mg kg^−1 i.p.). In studies with i.p. compound administration, the chest was opened, an incision was made in the right atrium, whole blood was collected into tubes containing K2EDTA, and the animals were perfused with saline (10 mL) prior to the excision of the brain tissue (left lobe). In studies with p.o. or i.v. delivery of compounds, blood was collected from the orbital sinus in microtainers containing K3EDTA, the animals were sacrificed by cervical dislocation, and the brain tissue (left lobe) was excised. After collection, the blood samples were centrifuged for 10 min at 3000 rpm, and the brain samples were weighed. All samples were immediately processed, flash‐frozen, and stored at −70 °C until subsequent analysis.
The compound levels in the plasma and brain samples were determined using liquid chromatography–tandem mass spectrometry (LC‐MS/MS) by a staff member from Bienta. Pharmacokinetic data analysis was performed using non‐compartmental, bolus injection, or extravascular input analysis models with WinNonlin 5.2 (PharSight). Data below the lower limit of quantitation were presented as missing data to improve the validity of the half‐life calculations. For each treatment condition, the final concentration values obtained at each time point were analyzed for outliers using Grubbs' test, with the level of significance set at p < 0.05. The sum of the AUC0‐inf (area under the concentration‐time curve from zero to time infinity) was used to estimate the ratiobrain/plasma (concentration ratio of the compound in the brain and plasma).

[7] = male, C57BL/6J, ip, I.P. 10 mg/kg, brain
[8] = male, C57BL/6J, ip, I.P. 10 mg/kg, plasma
[9] = male, C57BL/6J, iv, I.V. 1 mg/kg, brain
[10] = male, C57BL/6J, iv, I.V. 1 mg/kg, plasma
[11] = male, C57BL/6J, po, P.O. 10 mg/kg, brain
[12] = male, C57BL/6J, po, P.O. 10 mg/kg, plasma
[13] = male, C57BL/6J, ip, I.P. 2.5 mg/kg, brain
[14] = male, C57BL/6J, ip, I.P. 2.5 mg/kg, plasma

T1 sequence (P21728 whole entry): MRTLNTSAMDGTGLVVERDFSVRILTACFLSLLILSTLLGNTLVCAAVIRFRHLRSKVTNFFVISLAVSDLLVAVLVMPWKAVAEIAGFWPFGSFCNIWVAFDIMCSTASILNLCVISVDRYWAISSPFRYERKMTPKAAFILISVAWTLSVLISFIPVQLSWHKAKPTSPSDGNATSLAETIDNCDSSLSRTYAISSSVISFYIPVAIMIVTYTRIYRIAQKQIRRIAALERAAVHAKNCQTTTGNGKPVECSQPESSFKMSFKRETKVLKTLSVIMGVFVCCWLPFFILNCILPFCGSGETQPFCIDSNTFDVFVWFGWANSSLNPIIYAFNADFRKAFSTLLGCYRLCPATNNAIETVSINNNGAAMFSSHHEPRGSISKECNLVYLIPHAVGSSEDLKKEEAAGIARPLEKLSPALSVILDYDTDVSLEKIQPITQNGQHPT

With `O=C(O)COCCN1CCN(C2=Nc3ccccc3Oc3ccc(Cl)cc32)CC1` [Compound 6] the binding inhibition ([1]; 10 µM) was “substantial binding”, the metabolic stability [2] was “highest metabolic stabilities” and the chloroquine-induced scratching behavior ([3]; 15 mg kg−1 p.o.) was “profound antipruritic effect”. The chloroquine-induced scratching behavior ([3]; 3, 10, or 30 mg kg−1 i.p. 15 min prior to s.c. chloroquine, scratching bouts over 30 min) was “ameliorated scratching behavior in a dose‐dependent manner”, the “motor function, accelerating rotarod test” value ([4]; 3–30 mg i.p.) was “did not impair motor function” and the binding [5] was “did not measurably bind”. It also gave an AUC(0-inf) [6, 7] of 6780 ng·h/mL, a Cmax [6, 7] of 5490 ng/mL and a Tmax [6, 7] of 15 min. The half-life ([6]; male, C57BL/6J, ip, I.P. 10 mg/kg, brain, read-out: t1/2) was 39.7 min, the AUC(0-inf) [6, 8] was 5600 ng·h/mL and the Cmax [6, 8] was 6280 ng/mL. For the same molecule, the Tmax [6, 8] was 15 min, the half-life ([6]; male, C57BL/6J, ip, I.P. 10 mg/kg, plasma, read-out: t1/2) was 35 min and the AUC(0-inf) [6, 9] was 520 ng·h/mL. It also gave a Cmax [6, 9] of 493 ng/mL, a Tmax [6, 9] of 15 min and a half-life ([6]; male, C57BL/6J, iv, I.V. 1 mg/kg, brain, read-out: t1/2) of 62.1 min. It also gave an AUC(0-inf) [6, 10] of 473 ng·h/mL, a Cmax [6, 10] of 562 ng/mL and a half-life ([6]; male, C57BL/6J, iv, I.V. 1 mg/kg, plasma, read-out: t1/2) of 52.5 min. It also gave a half-life ([6]; male, C57BL/6J, plasma and brain, ip, 10 mg kg−1 i.p., first-order kinetics, read-out: half-life in the plasma and brain) of roughly 35 min, an AUC(0-inf) [6, 11] of 3750 ng·h/mL and a Cmax [6, 11] of 2460 ng/mL. For the same molecule, the Tmax [6, 11] was 15 min, the half-life ([6]; male, C57BL/6J, po, P.O. 10 mg/kg, brain, read-out: t1/2) was 71.9 min and the AUC(0-inf) [6, 12] was 4070 ng·h/mL. It also gave a Cmax [6, 12] of 3140 ng/mL, a Tmax [6, 12] of 15 min and a half-life ([6]; male, C57BL/6J, po, P.O. 10 mg/kg, plasma, read-out: t1/2) of 67.4 min. For the same molecule, the “blood–brain barrier crossing” value ([6]; 10 mg kg−1 i.p.) was “readily crossed the blood–brain barrier”.
With `CN1CCN(C2=Nc3ccccc3Oc3ccc(Cl)cc32)CC1` [Loxapine, reference compound] the inhibition at 10 µM ([1]; read-out: binding inhibition) was greater than 50%, the metabolic stability [2] was “metabolized rapidly” and the drug remaining unmodified ([2]; 10 µM, after 15 min) was 6%. The chloroquine-induced scratching behavior ([3]; wildtype mice, systemic low dose, preliminary experiments) was “considerably alleviated”, the “motor function, accelerating rotarod test” value ([4]; dose of ≥ 0.39 mg kg−1 i.p.) was “markedly reduced the ability of the mice to perform” and the binding [5] was “did not measurably bind”. For the same molecule, the Kp ([6]; male, C57BL/6J, brain and plasma, ip, 2.5 mg kg−1 i.p., from AUC0-inf, read-out: ratio brain/plasma) was 5.12, the AUC(0-inf) [6, 13] was 913 ng·h/mL and the Cmax [6, 13] was 493 ng/mL. The Tmax [6, 13] was 15 min, the half-life ([6]; male, C57BL/6J, ip, I.P. 2.5 mg/kg, brain, read-out: t1/2) was 82.2 min and the AUC(0-inf) [6, 14] was 178 ng·h/mL. The Cmax [6, 14] was 143 ng/mL, the Tmax [6, 14] was 15 min and the half-life ([6]; male, C57BL/6J, ip, I.P. 2.5 mg/kg, plasma, read-out: t1/2) was 61.9 min.
